Measured values reported in article PMC2878602 (Fems Yeast Research, 2010).

Columns and labels:
[1] = target: T1, Agt1 (AGT1 from ale strain A60) (Saccharomyces cerevisiae, UniProt P53048); experiment: inhibition of […]-maltose uptake into intact yeast transformants; format: cell-based
T1 sequence (P53048 1-616): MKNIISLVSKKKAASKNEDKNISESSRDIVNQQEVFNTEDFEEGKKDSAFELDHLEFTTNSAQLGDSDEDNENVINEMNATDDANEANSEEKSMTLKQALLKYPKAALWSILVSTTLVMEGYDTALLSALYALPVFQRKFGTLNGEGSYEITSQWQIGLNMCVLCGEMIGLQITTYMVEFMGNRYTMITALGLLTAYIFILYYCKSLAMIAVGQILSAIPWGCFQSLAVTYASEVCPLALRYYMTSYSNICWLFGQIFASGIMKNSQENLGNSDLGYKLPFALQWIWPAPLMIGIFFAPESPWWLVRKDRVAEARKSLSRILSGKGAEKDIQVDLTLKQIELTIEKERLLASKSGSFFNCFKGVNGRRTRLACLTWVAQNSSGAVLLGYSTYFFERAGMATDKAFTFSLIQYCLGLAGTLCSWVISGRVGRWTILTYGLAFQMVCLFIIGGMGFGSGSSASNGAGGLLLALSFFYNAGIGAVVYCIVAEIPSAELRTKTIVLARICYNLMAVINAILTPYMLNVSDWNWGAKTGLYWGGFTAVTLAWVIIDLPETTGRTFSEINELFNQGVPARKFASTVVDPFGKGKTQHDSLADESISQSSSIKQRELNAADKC

[2] = target: T2, Agt1 (AGT1 from ale strain A179) (Saccharomyces cerevisiae, UniProt P53048); experiment: as above; format: cell-based
T2 sequence (P53048 1-616): T1 sequence (P53048 1-616)

[3] = read-out: % inhibition at 50 mM
[4] = read-out: % inhibition at 75 mM

inhibition at 50000 µM [1, 3]	inhibition at 50000 µM [2, 3]	inhibition at 75000 µM [1, 4]	inhibition at 75000 µM [2, 4]	Compound
85%	79%			OC[C@H]1O[C@H](O[C@H]2[C@H](O)[C@@H](O)[C@@H](O[C@H]3[C@H](O)[C@@H](O)C(O)O[C@@H]3CO)O[C@@H]2CO)[C@H](O)[C@@H](O)[C@@H]1O (stereo partly shown) [maltotriose]
		94%	85%	OC[C@H]1O[C@H](O[C@H]2O[C@H](CO)[C@@H](O)[C@H](O)[C@H]2O)[C@H](O)[C@@H](O)[C@@H]1O [trehalose]
